Measurements taken from the OPERA property sets (Mansouri et al. 2018).

SMILES	logP
CCOP(=O)(Cc1ccc(-c2nc3ccccc3s2)cc1)OCC	3.5
Nc1ncnc2c1ncn2C1C=CC(CO)O1 (stereo not given)	-0.5
Cc1cccc(C)c1NC(=O)CCCN	0.71
COCOC(=O)C1N2C(=O)C(N3C(=O)C(c4ccc(O)cc4)NC3(C)C)C2SC1(C)C (stereo not given)	0.3
CCC(C(=O)OCc1ccccc1)C(COC(=O)c1cccc(Cl)c1)Cc1cncn1C (stereo not given)	5.08
Clc1ccc(-c2ccccc2)c(Cl)c1	5.16
O=c1[nH]c(-c2ccccc2)nc2nn[nH]c12	1.27
CC1c2nc3ccccc3c(=O)n2CN1CCc1ccccc1 (stereo not given)	1.8
C=Cc1ccc(C(=O)O)cc1	2.18
Clc1ccc(Cl)c(-c2ccccc2)c1	5.1
CC(O)c1ccc2ccccc2c1 (stereo not given)	2.68
CC(=O)Nc1nc(N2CCN(C)CC2)c(Cl)nc1[N+](=O)[O-]	0.5
CCOC(=O)C(C(=O)OC(C)C)=C1SCCS1	2.9
CN(C)CCC(c1ccccc1)c1ccc(C(C)(C)C)cc1 (stereo not given)	5.1
CCCCCCCC(C)(C)c1ccc(C2CCCC(O)C2)c(O)c1 (stereo not given)	7.18
CC(C)C(Nc1ccccc1)C(=O)OCc1ccccc1 (stereo not given)	4.41
CCCOC(=O)c1ccccc1Cl	3.45
CCOC(=O)C(CC(C)C)NC(=O)CNC(=O)CNC(=O)CCCCSc1ncnc2nc[nH]c12 (stereo not given)	1.07
COc1ncnc(NS(=O)(=O)c2ccc(N)cc2)c1OC(C)C	1.03
O=C(COc1ccc(OCCNCC(O)COc2ccccc2)cc1)N1CCc2ccccc2C1 (stereo not given)	3.6
CCC(C(=O)NC(N)=O)(C(=O)OC)c1ccccc1 (stereo not given)	1.58
N=C(N)NN=Cc1ccccc1	1.18
O=C1c2ccccc2C(=O)C1c1ccc(Br)cc1	3.76

SMILES	logP
C1CC2OC2CC1C1CO1 (stereo not given)	0.44
CC(=O)c1cccc(Nc2ccccc2C(=O)O)c1	4.07
Clc1ccc(-c2ccccc2Cl)cc1	5.09
O=C(NCCNCC(O)COc1ccc(-c2ncc[nH]2)cc1)Nc1ccccc1 (stereo not given)	1.19
c1ccc2c(c1)ccc1cccnc12	3.43
C[C@H]1O[C@@H](O[C@H]2CC[C@@]3(C)[C@H](CC[C@@H]4[C@@H]3CC[C@]3(C)[C@@H](C5=CC(=O)OC5)[C@@H](O)C[C@]43O)C2)C[C@H](O)[C@@H]1O	1.77
CCN1CC(C(O)C(CC2CCCCC2)NC(=O)C(Cc2c[nH]cn2)NC(=O)C(Cc2ccc(OC)cc2)NC(=O)N2CC(OCOCCOC)C(OCOCCOC)C2)OC1=O (stereo not given)	1.67
Cc1ccc(S(=O)(=O)NC(=O)NC2CCCCC2)cc1	2.9
COc1ccc(Cc2cnc(N)nc2N)cc1C(C)C	2.79
C=C1C(=O)OC2CC3(C)CCCC(=C)C3CC12 (stereo not given)	3.42
COc1ccc(CCNCC(O)COc2ccc(COCc3ncc[nH]3)cc2)cc1OC (stereo not given)	1.29
CCCCCCC(C)(C)c1cc(O)c2c(c1)OC(C)(C)C1CC=C(C)CC21 (stereo not given)	9.96
O=C1CN=C(c2ccccc2)c2cc(Br)ccc2N1	3.11
CC(C)Nc1nc(Cl)nc(NC2CC2)n1	3.06
CC(=O)c1ccc(C(O)(Cn2ccnc2)c2ccc(-c3ccncc3)cc2)cc1 (stereo not given)	2.41
O=[N+]([O-])c1cc(F)ccc1F	1.86
O=C(O)C=COc1ccccc1Cl	2.69
c1ccc(-c2cn[nH]n2)cc1	1.91
O=[N+]([O-])c1cnc(N=C2NCCO2)s1	0.57
CCN(CC)CCOC(=O)/C=C/c1ccccc1	3.61
Cc1cccc(C)c1OC(=O)c1ccc(N)cc1O	3.88
O=C(O)c1cccnc1	0.36
CCNC(=O)NS(=O)(=O)c1ccc(Cl)cc1	1.79

SMILES	logP
OCc1cc(Cl)cc(Cl)c1O	2.3
CN(C)c1ccc(C(O)(Cn2ccnc2)c2ccc(-c3ccncc3)cc2)cc1 (stereo not given)	3.29
CCN(CC)CCC(=O)Nc1c(C)cccc1C	2.21
O=C1C(Nc2ccccc2)=C(S(=O)(=O)c2ccccc2)C(=O)c2ccccc21	3.38
CCOc1ccc(Cc2cnc(N)nc2N)cc1OC	1.34
C=C(C)C(=O)OCC(O)COc1ccccc1 (stereo not given)	2.27
CNC(=O)NS(=O)(=O)c1ccc(Cl)cc1	1.16
Cc1ccccc1C(OCCN(C)C)c1ccccc1 (stereo not given)	3.77
CCCCCCCCCCCCCC(=O)O	6.11
CCCCCc1ccc(CC(=O)O)cc1	3.75
CCC(C(=O)OCc1ccccc1)C(COC(=O)c1cccnc1)Cc1cncn1C (stereo not given)	3.05
Fc1cccc(N=C2NCCN2)c1Cl	1.52
CCCC(O)C(=O)O (stereo not given)	0.45
OCc1cc(Cl)ccc1O	1.44
CCCc1ccc(O)cc1	3.2
CCC(N)C(=O)Nc1c(C)cccc1C (stereo not given)	0.84
CNC(C)C(OC)c1ccccc1 (stereo not given)	2.05
O=C(O)Cc1ccc2c(c1)C(=O)c1ccccc1CS2	2.97
CC/C=C\C/C=C\C/C=C\CCCCCCCC(=O)O	6.46
CNC(=O)c1cc(Br)cc(C)c1O	3.51
Nc1ccc(O)c2ncccc12	-0.11
O=C(O)c1ccc(Cl)cc1Nc1ccccc1	4.25
O=c1nc(-c2ccccc2)c2ccccc2[nH]1	1.91

SMILES	logP
CCCCc1ccncc1	3.13
Cc1cn([C@H]2C[C@H](O)[C@@H](CO)O2)c(=O)[nH]c1=O	-0.93
N[C@@H](Cc1cnccn1)C(=O)O	-2.79
O=C1C2C3C=CC(C4C=CC43)C2C(=O)N1CCCCN1CCN(c2ncccn2)CC1 (stereo not given)	1.79
c1ccc(C2CCCN2)cc1 (stereo not given)	1.89
Nc1cccc(I)c1	2.86
CC(C)NCC1CCc2cc(CO)c([N+](=O)[O-])cc2N1 (stereo not given)	2.24
COc1cc(CCN)cc(OC)c1OCc1ccccc1	2.4
CCC(=O)Oc1c(OC)c(OC)c(OC(=O)CC)c2ccccc12	3.44
C=C1C(=O)OC2C1C(OC(=O)C=C(C)C)CC1=CC(CC3(C)OC23)OC1=O (stereo not given)	1.05
C#CC1(O)C(F)CC2C3CCc4cc(O)ccc4C3C(CC)CC21C (stereo not given)	4.12
C=CCC(NC(=O)C(Cc1ccccc1)NS(=O)(=O)N1CCOCC1)C(=O)NC(CC1CCCCC1)C(=O)C(F)(F)C(=O)NCCN1CCOCC1 (stereo not given)	3.39
O=C(c1ccc2n1CCC2C(=O)O)C1CCC1 (stereo not given)	2.41
C=C(C)OCc1ccccc1	2.41
CCN(CCO)Cc1cccc(COc2ccccc2)c1	3.04
CC(=O)O[C@H]1C[C@H](O[C@H]2[C@@H](O)C[C@H](O[C@H]3[C@@H](O)C[C@H](O[C@H]4CC[C@@]5(C)[C@H](CC[C@@H]6[C@@H]5C[C@@H](O)[C@]5(C)[C@@H](C7=CC(=O)OC7)CC[C@]65O)C4)O[C@@H]3C)O[C@@H]2C)O[C@H](C)[C@H]1O	1.97
O=[N+]([O-])c1cnc(C=Cc2ccc3c(c2)OCO3)n1CCO	2.03
Cc1c(Br)cccc1N=C1NCCN1	1.94
CC12CCC(=O)C=C1CCC1C3CCC4(CCC(=O)O4)C3(C)CC(O)C12F (stereo not given)	2.4
CCc1ccc(CC(=O)O)cc1	2.25
C#CC1(O)CCC2C3CCc4cc(O)ccc4C3C(CC)CC21C (stereo not given)	4.28
O=C(O)c1ccc(Cl)cc1Nc1ccc(I)cc1	5.37
CCC1(c2ccccc2)C(=O)N=C(OC(C)C)NC1=O (stereo not given)	1.79

SMILES	logP
COc1cc(Cc2cnc(N)nc2N)c(I)c(OC)c1OC	1.79
CCCCOC(=O)c1cc(=O)[nH]c(=O)[nH]1	1.06
Clc1cccc(-c2cccc(Cl)c2)c1	5.27
CON=C(C(=O)N[C@@H]1C(=O)N2C(C(=O)O)=C(COC(N)=O)CS[C@H]12)c1ccco1	-0.16
COC1CC(OC2CCC3(C=O)C4CCC5(C)C(C6=CC(=O)OC6)CCC5(O)C4CCC3(O)C2)OC(C)C1O (stereo not given)	0.64
COc1ccc(CCOC(=O)C(N)Cc2ccc(O)c(O)c2)cc1 (stereo not given)	1.69
COC(=O)N(C)SN(C)C(=O)ON=C(C)SC	1.4
c1ccc(-c2nc3ccccc3o2)cc1	3.67
C=C1C(=O)OC2C1C(OC(=O)C(C)=CC)CC(O)(CCl)C1C(OC(C)=O)C=C(C)C21O (stereo not given)	1.42
Nc1nnc(CCc2ccccc2)o1	1.19
COc1ccc(CCNCC(O)COc2ccc(-c3ncc(C)[nH]3)cc2OC)cc1OC (stereo not given)	1.89
NC1CCc2ccccc2C1 (stereo not given)	2.08
COc1cc2nc(N3CCN(C(=O)C(C)OC)CC3)nc(N)c2cc1OC (stereo not given)	1.14
C=C(C)C(=O)OCCCOC(=O)C(=C)C	1.86
O=C(O)C1CCc2cc(Cl)ccc2O1 (stereo not given)	2.4
CCCCc1ccc(CC(=O)O)cc1	3.25
CCOC(=O)CNC(=O)CNC(=O)CNC(=O)CCCCSc1ncnc2nc[nH]c12	0.21
O=C(OOC(=O)c1ccccc1)c1ccccc1	3.46
Cc1ccc(S(=O)(=O)NC(=O)Nc2ccccc2)cc1	3.11
CCCCCCC(C)(C)c1ccc(C2CC(O)CCC2CCCO)c(O)c1 (stereo not given)	6.13
CCCCNC(=O)NCCNCC(O)COc1ccc(-c2ncc(C)[nH]2)cc1 (stereo not given)	1.24
CCCCCCCCCCOc1ccc(C(=O)O)cc1	6.29
CC1CC2C3CC(F)C4=CC(=O)C(Cl)=CC4(C)C3(Cl)C(O)CC2(C)C1(O)C(=O)COC(=O)C(C)(C)C (stereo not given)	4.73

SMILES	logP
Nc1c([N+](=O)[O-])ccc2ncccc12	1.61
Nc1nc(-c2ccccn2)cc2ccccc12	2.74
CC(=O)c1ccc(S(=O)(=O)NC(=O)NC2CCCCC2)cc1	2.44
CN(C)N=Nc1ccc(C(=O)O)cc1	2.33
CCOCc1ccccc1	2.16
O=C1CC(Oc2ccc(C(=O)CCc3ccccc3)cc2)N1 (stereo not given)	2.48
Cc1cc(=O)n2c(n1)CCCC2C (stereo not given)	0.67
CCc1ccc(NC(=O)CN2CCCCC2)cc1	3.52
CCOC(=O)CNC(=O)CCCCSc1ncnc2nc[nH]c12	0.91
C=C1C(=O)OC2C=C(C)C(OC(C)=O)CC(O)C(C)=CC(OC(=O)C(C)=CC)C12 (stereo not given)	1.16
CCN(CC)CCCC(=O)Nc1c(C)cccc1C	2.06
Cc1ncc(CO)c(CO)c1O	-0.77
Cc1cnc2n(c1=O)C(C)CCC2 (stereo not given)	0.82
CCOc1ccc(NC(=O)CN2CCCCC2)cc1	2.82
O=C(O)c1ccc(Cl)cc1Nc1cccc(Br)c1	5.16
CCCCCCC(C)(C)c1cc(O)c2c(c1)OC(C)(C)[C@@H]1CC=C(CO)C[C@@H]21	7.44
c1cc2cccc3c4cccc5cccc(c(c1)c23)c54	6.25
O=C1Nc2ccccc2CC1c1ccccc1 (stereo not given)	2.93
CNC1CC2CC1c1ccccc12 (stereo not given)	2.32
O=C(CBr)c1ccccc1	2.19
